# Measurements: ChEMBL document CHEMBL5303573, “Mapping human microbiome drug metabolism by gut bacteria and their genes” (Nature, 2019)
# Key:
# [1] = The drug is tested on Clostridium scindens strain: ATCC35704 for biotransformation. The drug concentrations were measured before and after a 12-h incubation by liquid-chromatography-coupled mass spectrometry (LC–MS); conditions: 2 µM
# [2] = The drug is tested on Bacteroides uniformis strain: ATCC8492 for biotransformation. The drug concentrations were measured before and after a 12-h incubation by liquid-chromatography-coupled mass spectrometry (LC–MS); conditions: 2 µM
# [3] = The drug is tested on Edwardsiella tarda strain: ATCC23685 for biotransformation. The drug concentrations were measured before and after a 12-h incubation by liquid-chromatography-coupled mass spectrometry (LC–MS); conditions: 2 µM
# [4] = The drug is tested on Bacteroides ovatus strain: ATCC8483 for biotransformation. The drug concentrations were measured before and after a 12-h incubation by liquid-chromatography-coupled mass spectrometry (LC–MS); conditions: 2 µM
# [5] = The drug is tested on Clostridium symbiosum strain: ATCC14940 for biotransformation. The drug concentrations were measured before and after a 12-h incubation by liquid-chromatography-coupled mass spectrometry (LC–MS); conditions: 2 µM
# [6] = The drug is tested on Alistipes indistinctus strain: DSM22520 for biotransformation. The drug concentrations were measured before and after a 12-h incubation by liquid-chromatography-coupled mass spectrometry (LC–MS); conditions: 2 µM
# [7] = The drug is tested on Coprococcus comes strain: ATCC27758 for biotransformation. The drug concentrations were measured before and after a 12-h incubation by liquid-chromatography-coupled mass spectrometry (LC–MS); type: ADME; parameters: dose 2 uM, timepoint 0 vs 12 hours; conditions: 2 µM
# [8] = The drug is tested on Subdoligranulum variabile strain: DSM15176 for biotransformation. The drug concentrations were measured before and after a 12-h incubation by liquid-chromatography-coupled mass spectrometry (LC–MS); conditions: 2 µM
# [9] = The drug is tested on Odoribacter splanchnicus strain: fecal isolate for biotransformation. The drug concentrations were measured before and after a 12-h incubation by liquid-chromatography-coupled mass spectrometry (LC–MS); conditions: 2 µM
# [10] = The drug is tested on Clostridium sporogenes strain: ATCC15579 for biotransformation. The drug concentrations were measured before and after a 12-h incubation by liquid-chromatography-coupled mass spectrometry (LC–MS); conditions: 2 µM
# [11] = The drug is tested on Parabacteroides merdae strain: ATCC43184 for biotransformation. The drug concentrations were measured before and after a 12-h incubation by liquid-chromatography-coupled mass spectrometry (LC–MS); conditions: 2 µM
# [12] = The drug is tested on Anaerococcus hydrogenalis strain: DSM7454 for biotransformation. The drug concentrations were measured before and after a 12-h incubation by liquid-chromatography-coupled mass spectrometry (LC–MS); conditions: 2 µM
# [13] = The drug is tested on Blautia luti strain: DSM14534 for biotransformation. The drug concentrations were measured before and after a 12-h incubation by liquid-chromatography-coupled mass spectrometry (LC–MS); type: ADME; parameters: dose 2 uM, timepoint 0 vs 12 hours; conditions: 2 µM
# [14] = anaerostipes sp., 12 h, 2 µM
# Description: The drug is tested on Anaerostipes sp. strain: fecal isolate for biotransformation. The drug concentrations were measured before and after a 12-h incubation by liquid-chromatography-coupled mass spectrometry (LC–MS)
# [15] = The drug is tested on Eggerthella lenta strain: ATCC25559 for biotransformation. The drug concentrations were measured before and after a 12-h incubation by liquid-chromatography-coupled mass spectrometry (LC–MS); conditions: 2 µM
# [16] = The drug is tested on Bacteroides vulgatus strain: ATCC8482 for biotransformation. The drug concentrations were measured before and after a 12-h incubation by liquid-chromatography-coupled mass spectrometry (LC–MS); conditions: phocaeicola vulgatus, 2 µM
# [17] = bacteroides fragilis, 12 h, 2 µM
# Description: The drug is tested on Bacteroides fragilis strain: NCTC 9343 for biotransformation. The drug concentrations were measured before and after a 12-h incubation by liquid-chromatography-coupled mass spectrometry (LC–MS)
# [18] = bacteroides thetaiotaomicron, 12 h, 2 µM
# Description: The drug is tested on Bacteroides thetaiotaomicron strain: 3731 for biotransformation. The drug concentrations were measured before and after a 12-h incubation by liquid-chromatography-coupled mass spectrometry (LC–MS)
# [19] = The drug is tested on Bacteroides pectinophilus strain: ATCC43243 for biotransformation. The drug concentrations were measured before and after a 12-h incubation by liquid-chromatography-coupled mass spectrometry (LC–MS); conditions: 2 µM
# [20] = The drug is tested on Bacteroides fragilis strain: HMW610 for biotransformation. The drug concentrations were measured before and after a 12-h incubation by liquid-chromatography-coupled mass spectrometry (LC–MS); conditions: 2 µM
Bacterial Biotransformation [1],Bacterial Biotransformation [2],Bacterial Biotransformation [3],Bacterial Biotransformation [4],Bacterial Biotransformation [5],Bacterial Biotransformation [6],Bacterial Biotransformation [7],Bacterial Biotransformation [8],Bacterial Biotransformation [9],Bacterial Biotransformation [10],Bacterial Biotransformation [11],Bacterial Biotransformation [12],Bacterial Biotransformation [13],Bacterial Biotransformation [14],Bacterial Biotransformation [15],Bacterial Biotransformation [16],Bacterial Biotransformation [17],Bacterial Biotransformation [18],Bacterial Biotransformation [19],Bacterial Biotransformation [20],SMILES
Compound NOT metabolized,Compound NOT metabolized,Compound NOT metabolized,Compound NOT metabolized,Compound NOT metabolized,Compound NOT metabolized,Compound NOT metabolized,Compound NOT metabolized,Compound NOT metabolized,Compound NOT metabolized,Compound NOT metabolized,Compound NOT metabolized,Compound NOT metabolized,Compound NOT metabolized,Compound NOT metabolized,Compound NOT metabolized,Compound NOT metabolized,,,,C=CCc1ccccc1OCC(O)CNC(C)C (stereo not drawn) [ALPRENOLOL]
Compound NOT metabolized,Compound NOT metabolized,Compound NOT metabolized,Compound NOT metabolized,Compound NOT metabolized,Compound NOT metabolized,Compound NOT metabolized,Compound NOT metabolized,Compound NOT metabolized,Compound NOT metabolized,Compound NOT metabolized,Compound NOT metabolized,Compound NOT metabolized,Compound NOT metabolized,Compound NOT metabolized,Compound NOT metabolized,Compound NOT metabolized,Compound NOT metabolized,Compound NOT metabolized,,CCN1CCCC1CNC(=O)c1cc(S(=O)(=O)CC)c(N)cc1OC (stereo not drawn) [AMISULPRIDE]
Compound metabolized,Compound metabolized,Compound metabolized,Compound metabolized,Compound metabolized,Compound metabolized,Compound metabolized,Compound metabolized,Compound metabolized,Compound metabolized,Compound metabolized,Compound metabolized,Compound metabolized,Compound metabolized,Compound metabolized,Compound metabolized,Compound metabolized,Compound metabolized,Compound metabolized,,CCN(CC)CCOCCOC(=O)C1(c2ccccc2)CCCC1.O=C(O)CC(O)(CC(=O)O)C(=O)O [CARBETAPENTANE CITRATE]
Compound metabolized,Compound metabolized,Compound metabolized,,Compound metabolized,Compound metabolized,Compound metabolized,Compound metabolized,Compound metabolized,Compound metabolized,Compound metabolized,Compound metabolized,Compound metabolized,Compound metabolized,Compound metabolized,Compound metabolized,Compound metabolized,Compound metabolized,Compound metabolized,Compound metabolized,CCOC(=O)C1=C(C)NC(C)=C(C(=O)OC)C1c1cccc([N+](=O)[O-])c1 (stereo not drawn) [NITRENDIPINE]

# Further lines, the compound ahead of its results:
SMILES,Bacterial Biotransformation [1],Bacterial Biotransformation [2],Bacterial Biotransformation [3],Bacterial Biotransformation [4],Bacterial Biotransformation [5],Bacterial Biotransformation [6],Bacterial Biotransformation [7],Bacterial Biotransformation [8],Bacterial Biotransformation [9],Bacterial Biotransformation [10],Bacterial Biotransformation [11],Bacterial Biotransformation [12],Bacterial Biotransformation [13],Bacterial Biotransformation [14],Bacterial Biotransformation [15],Bacterial Biotransformation [16],Bacterial Biotransformation [17],Bacterial Biotransformation [18],Bacterial Biotransformation [19],Bacterial Biotransformation [20]
OC(CCN1CCCCC1)(c1ccccc1)C1CC2C=CC1C2 (stereo not drawn) [BIPERIDEN],Compound NOT metabolized,Compound NOT metabolized,Compound NOT metabolized,Compound NOT metabolized,Compound NOT metabolized,Compound NOT metabolized,Compound NOT metabolized,Compound NOT metabolized,Compound NOT metabolized,Compound NOT metabolized,Compound NOT metabolized,Compound NOT metabolized,Compound NOT metabolized,Compound NOT metabolized,Compound NOT metabolized,Compound metabolized,,Compound NOT metabolized,Compound NOT metabolized,
O=P1(N(CCCl)CCCl)NCCCO1 (stereo not drawn) [CYCLOPHOSPHAMIDE ANHYDROUS],,Compound NOT metabolized,,Compound NOT metabolized,Compound NOT metabolized,Compound metabolized,,Compound NOT metabolized,Compound NOT metabolized,Compound NOT metabolized,Compound NOT metabolized,Compound NOT metabolized,Compound NOT metabolized,,Compound NOT metabolized,Compound NOT metabolized,Compound NOT metabolized,Compound NOT metabolized,,
CC(Oc1c(Cl)cccc1Cl)C1=NCCN1 (stereo not drawn) [LOFEXIDINE],Compound metabolized,Compound metabolized,Compound metabolized,Compound NOT metabolized,Compound metabolized,Compound metabolized,Compound metabolized,Compound metabolized,Compound metabolized,Compound metabolized,Compound metabolized,Compound metabolized,Compound metabolized,Compound metabolized,Compound metabolized,Compound metabolized,Compound metabolized,Compound metabolized,Compound metabolized,
CNC(=C[N+](=O)[O-])NCCSCc1csc(CN(C)C)n1 [NIZATIDINE],Compound metabolized,Compound NOT metabolized,Compound metabolized,Compound NOT metabolized,Compound metabolized,Compound metabolized,Compound NOT metabolized,Compound metabolized,,Compound NOT metabolized,Compound NOT metabolized,Compound metabolized,Compound metabolized,Compound metabolized,Compound NOT metabolized,Compound metabolized,Compound metabolized,Compound NOT metabolized,Compound metabolized,Compound metabolized
COc1cc(NC(C)CCCN)c2ncccc2c1.O=P(O)(O)O.O=P(O)(O)O (stereo not drawn) [PRIMAQUINE PHOSPHATE],,Compound metabolized,,Compound metabolized,Compound metabolized,Compound NOT metabolized,Compound NOT metabolized,Compound NOT metabolized,,Compound NOT metabolized,Compound NOT metabolized,Compound metabolized,,Compound NOT metabolized,Compound NOT metabolized,Compound NOT metabolized,Compound NOT metabolized,,Compound metabolized,
